Test results taken from US20200345733A1, “Microbicidal Pyrimidine or Triazine Containing Compounds” (Janssen Sciences Ireland UC, priority 2002, published 2020).

Columns and labels:
[1] = tested on: T-lymphocyte proliferation; experiment: Immune suppressive activity in mixed leukocyte cultures (MO-DC stimulators, allogenic CD4(+) T cells); format: cell-based
Description: The immune suppressive activity of compound B was measured in mixed leukocyte cultures (MLC), with MO-DC as stimulators and allogenic CD4(+) T cells as responders. Cultures of 3×10^3 MO-DC and 100×10^3 T cells were set-up in 6-fold in a 96-well plate, in the presence or absence of a dilution series of compound B. In a first part of experiments, compound B was removed after 24 hours by washing and cells were cultured for an additional 4 days. In a second part of experiments, compound B remained present during the 5-day culture period. In both set-ups, 1 μCi of [methyl-^3H] thymidine (TRA. 120 from Amersham Pharmacia, Buckinghamshire, U.K.) was added to each well at the fifth day of culture. Plates were harvested 7 hours later and [methyl-^3H] thymidine incorporation was measured in a scintillation counter (Top Count™, Canberra-Packard, Zellik, Belgium) and expressed as counts per minute (CPM). The
Immune Suppressive Concentration (ISC50) is defined as the drug concentration inhibiting 50% of the lymphocyte proliferation. Cellular toxicity was evaluated microscopically by […] staining of co-cultures of MO-DC and allogeneic CD4(+) T cells , cultured for 5 days in the presence of a dilution series of drug. Part of the harvested cells was also used for flowcytometric analysis of lymphocyte blast formation and apopoptosis, based on forward and side scatter.

[2] = tested on: HTLV-IIIb infected CEM T cells; experiment: Antiviral activity in HTLV-IIIB infected CEM T cells (syncytium formation); format: cell-based, HIV; settings: Human immunodeficiency virus 1, T-cell, continuous treatment, 50% inhibition of syncytium formation in CEM T cells
Description: For experiments with CEM T cells, we used the lymphotropic SI/X4 HIV strain HTLV-IIIB, originally obtained from R. C. Gallo and M. Popovic (NIH, Bethesda, Md.). For experiments with monocyte-derived dendritic cells (MO-DC), the monotropic NSI/R5 HIV strain Ba-L, kindly provided by the NIH AIDS Research and Reference Reagent Program (Rockville, Md) was used. Ba-L stocks were grown and tittered on PHA/IL-2-stimulated peripheral blood mononuclear cells (PBMC) in complete medium, containing RPMI-1640 (Bio-Whittaker, Verviers, Belgium) and 10% bovine calf serum (Hyclone, Utah, US) (Peden K. Virological and Molecular Genetic Techniques for Studies of Established HIV Isolates. 1995, 21-45). The supernatant of these cultures were directly used as cell-free virus to infect MO-DC. To prepare cell-associated HIV Ba-L, non-stimulated PBMC (2×10^6 cells/ml) were incubated overnight with 10^−2 MOI (=multiplicity of infection) of HIV Ba-L in complete medium. Afterwards, cells were extensively washed, frozen in liquid nitrogen and thawed on the day of infection.
As a reference system, CEM T cells (obtained from the American Type culture Collection in Rockville, Md.) were used under previously standardized conditions (Balzarini J, et al. AIDS Res Hum Retroviruses 10 Apr. 2000, 16: 517-528). […]

HIV-1 (SF162 and 1/BX08) = experiment: hu-SCID animal model of vaginal transmission of HIV; format: in vivo; settings: single intravaginal 25 μl gel (carbopol 940 or HEC; 0.225, 0.0225 or 0.00225 mM) 15-20 minutes before challenge
Description: In order to mimic the in vivo transmission that occurs in humans, a hu-SCID animal model of vaginal transmission of HIV for the evaluation of vaginal microbicides was used (Di Fabio et al., AIDS 2001, 15, 2231-2234 Gels made up of carbopol 940 or hydroxyethyl cellulose (HEC), two water soluble polymers, were prepared containing Compound B in different concentrations (0.225 mM; 0.0225 mM or 0.00225 mM). Animals received a single intravaginal application of 25 μl of gel containing Compound B, 15-20 minutes prior to a non invasive vaginal challenge with 2×10^6 human peripheral blood lymphocytes PBL, (hu-PBL) previously infected in vitro with non-syncitium (NSI) strains of HIV-1 (SF162 and 1/BX08). Cell to cell transmission was assessed by p24 production and by quantitative PCR.

Structure (SMILES): Cc1cc(C)c(Nc2ccnc(Nc3ccc(C#N)cc3)n2)c(C)c1 [compound B, 4-[[4-[(2,4,6-trimethylphenyl)amino]-2-pyrimidinyl]amino]benzonitrile]
- ISC50 (50% Immune Suppressive Concentration) ([1]; drug present continuously during 5-day culture): about 1,500 nM
- ISC50 (50% Immune Suppressive Concentration) ([1]; drug present continuously during 5-day culture, listed as Comp. B): 1,515 nM
- ISC50 (50% Immune Suppressive Concentration) ([1]; drug present during first 24 hours only): ~25,000 nM
- ISC50 (50% Immune Suppressive Concentration) ([1]; drug present during first 24 hours only, listed as Comp. B): 24,886 nM
- EC50 [2]: 1 nM
- Systemic infection after vaginal challenge with HIV-1 infected hu-PBL (p24, quantitative PCR) (HIV-1 (SF162 and 1/BX08)): systemic infection was successfully inhibited
